≈ marks a conversion by molar mass, not a printed value.
Tests used:
[1] = system: Staphylococcus aureus (ATCC29213); experiment: In-vitro anti-bacterial activity, microtitre plate assay, IC90 determination (non-mycobacterial strains); format: cell-based; conditions: 90% inhibitory concentration for bacterial growth, resazurin fluorescence; for IC90 STA B29213: 24 hours; for IC90: Staphylococcus aureus, ATCC29213, 24 h, read-out: IC90 STA B29213
Summary of the method: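 Inoculum of about 100 TCID50 (10–60 CFU/well) in Mueller-Hinton broth, serial five-fold compound dilutions, 24 h at 37 °C in air. Growth read by resazurin fluorescence (ex 530/em 590 nm); IC90 in μg/ml as 90% growth inhibition.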

[2] = system: Mycobacterium smegmatis (ATCC607); experiment: In-vitro anti-bacterial activity against strain M. Smegmatis ATCC607; format: cell-based; conditions: 90% inhibitory concentration for bacterial growth, Alamar Blue fluorescence; for IC90 MSM 607: 48 hours
Summary of the method: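 Serial five-fold compound dilutions in BSA-supplemented wells, inoculated with ~250 CFU/well in Mueller-Hinton broth, incubated 48 h at 37 °C, 5% CO2. Growth read by Alamar Blue fluorescence (ex 530/em 590 nm); IC90 in μg/ml.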

Row | IC90 STA B29213 [1] | IC90 MSM 607 [2] | IC90 ([2]; Mycolicibacterium smegmatis, ATCC607, 48 h, read-out: IC90 MSM 607) | IC90 [1] | SMILES
1 | 1.76 µg/mL (≈ 3.36 µM) | 1.40 µg/mL (≈ 2.68 µM) |  |  | CSc1ccc2[nH]c(=O)c(C(c3ccc(Cl)cc3)C3(O)CCNC(c4ccc(F)cc4C)C3)cc2c1 (centres unmarked) [Compound 277]
2 | 1.77 µg/mL (≈ 3.38 µM) | 1.40 µg/mL (≈ 2.68 µM) |  |  | CSc1ccc2[nH]c(=O)c(C(c3ccc(Cl)cc3)C3(O)CCNC(c4ccc(F)cc4C)C3)cc2c1 (centres unmarked) [Compound 278]
3 | 7.00 µg/mL (≈ 13.4 µM) | 7.00 µg/mL (≈ 13.4 µM) |  |  | Cc1cc(F)ccc1C1CC(O)(C(c2ccccc2)c2cc3cc(Br)ccc3[nH]c2=O)CCN1 (centres unmarked) [Compound 279]
4 | 1.75 µg/mL (≈ 3.36 µM) | 1.10 µg/mL (≈ 2.11 µM) |  |  | Cc1cc(F)ccc1C1CC(O)(C(c2ccccc2)c2cc3cc(Br)ccc3[nH]c2=O)CCN1 (centres unmarked) [Compound 280]
5 | 3.53 µg/mL (≈ 6.75 µM) |  | 7.03 µg/mL (≈ 13.4 µM) |  | CSc1ccc2[nH]c(=O)c(C(c3ccc(Cl)cc3)C3(O)CCNC(Cc4ccc(F)cc4)C3)cc2c1 (centres unmarked) [Compound 281]
6 | 7.02 µg/mL (≈ 13.4 µM) | 7.02 µg/mL (≈ 13.4 µM) |  |  | CSc1ccc2[nH]c(=O)c(C(c3ccc(Cl)cc3)C3(O)CCNC(Cc4ccc(F)cc4)C3)cc2c1 (centres unmarked) [Compound 282]
7 | 4.25 µg/mL (≈ 7.91 µM) | 3.38 µg/mL (≈ 6.29 µM) |  |  | COc1nc2ccc(SC)cc2cc1C(c1ccc(Cl)cc1)C1(O)CCNCC1Cc1cccc(F)c1 (centres unmarked) [Compound 284]
8 | >13.49 µg/mL | >13.49 µg/mL |  |  | COc1nc2ccc(SC)cc2cc1C(c1ccc(Cl)cc1)C1(O)CCNCC1Cc1cccc(F)c1 (centres unmarked) [Compound 285]
9 | 4.22 µg/mL (≈ 7.86 µM) | 2.12 µg/mL (≈ 3.95 µM) |  |  | COc1nc2ccc(SC)cc2cc1C(c1ccc(Cl)cc1)C1(O)CCNCC1Cc1cccc(F)c1 (centres unmarked) [Compound 286]
10 | 4.29 µg/mL (≈ 8.17 µM) | 3.41 µg/mL (≈ 6.49 µM) |  |  | COc1nc2ccc(SC)cc2cc1C(c1ccc(Cl)cc1)C1(O)CCNC(CC2CCCCC2)C1 (centres unmarked) [Compound 288]
11 | 4.23 µg/mL (≈ 8.05 µM) | 3.36 µg/mL (≈ 6.4 µM) |  |  | COc1nc2ccc(SC)cc2cc1C(c1ccc(Cl)cc1)C1(O)CCNC(CC2CCCCC2)C1 (centres unmarked) [Compound 289]
12 | 2.35 µg/mL (≈ 4.47 µM) | 2.63 µg/mL (≈ 5.01 µM) |  |  | COc1nc2ccc(SC)cc2cc1C(c1ccc(Cl)cc1)C1(O)CCNC(CC2CCCCC2)C1 (centres unmarked) [Compound 290]
13 | 7.16 µg/mL (≈ 12.6 µM) | 5.69 µg/mL (≈ 10 µM) |  |  | COc1nc2ccc(S(C)(=O)=O)cc2cc1C(c1ccc(Cl)cc1)C1(O)CCNCC1Cc1cccc(F)c1 (centres unmarked) [Compound 292]
14 | 7.16 µg/mL (≈ 12.6 µM) | 7.16 µg/mL (≈ 12.6 µM) |  |  | COc1nc2ccc(S(C)(=O)=O)cc2cc1C(c1ccc(Cl)cc1)C1(O)CCNCC1Cc1cccc(F)c1 (centres unmarked) [Compound 293]
15 | 11.36 µg/mL (≈ 20 µM) | 14.30 µg/mL (≈ 25.1 µM) |  |  | COc1nc2ccc(S(C)(=O)=O)cc2cc1C(c1ccc(Cl)cc1)C1(O)CCNCC1Cc1cccc(F)c1 (centres unmarked) [Compound 294]
16 | 3.43 µg/mL (≈ 6.71 µM) | 3.43 µg/mL (≈ 6.71 µM) |  |  | CSc1ccc2[nH]c(=O)c(C(c3ccc(Cl)cc3)C3(O)CCNC(CC4CCCCC4)C3)cc2c1 (centres unmarked) [Compound 295]
17 | 3.43 µg/mL (≈ 6.71 µM) | 6.85 µg/mL (≈ 13.4 µM) |  |  | CSc1ccc2[nH]c(=O)c(C(c3ccc(Cl)cc3)C3(O)CCNC(CC4CCCCC4)C3)cc2c1 (centres unmarked) [Compound 296]
18 | 3.43 µg/mL (≈ 6.71 µM) | 13.65 µg/mL (≈ 26.7 µM) |  |  | CSc1ccc2[nH]c(=O)c(C(c3ccc(Cl)cc3)C3(O)CCNC(CC4CCCCC4)C3)cc2c1 (centres unmarked) [Compound 297]
19 | 6.88 µg/mL (≈ 13.5 µM) | 6.88 µg/mL (≈ 13.5 µM) |  |  | CSc1ccc2[nH]c(=O)c(C(c3ccc(Cl)cc3)C3(O)CCNC(CC4CCCCC4)C3)cc2c1 (centres unmarked) [Compound 298]
20 |  | 5.47 µg/mL (≈ 10.7 µM) |  | 6.88 µg/mL (≈ 13.5 µM) | Cc1cc(F)ccc1C1CC(O)(C(c2ccc(Cl)cc2)c2cc3cc(Cl)ccc3[nH]c2=O)CCN1 (centres unmarked) [Compound 303]
21 | 3.45 µg/mL (≈ 6.75 µM) | 1.73 µg/mL (≈ 3.38 µM) |  |  | Cc1cc(F)ccc1C1CC(O)(C(c2ccc(Cl)cc2)c2cc3cc(Cl)ccc3[nH]c2=O)CCN1 (centres unmarked) [Compound 304]
22 | 18.76 µg/mL (≈ 32 µM) | 18.76 µg/mL (≈ 32 µM) |  |  | COc1nc2ccc(S(C)(=O)=O)cc2cc1C(c1ccc(Cl)cc1)C1(O)CCNC(Cc2ccc(F)cc2F)C1 (centres unmarked) [Compound 305]
23 | 4.70 µg/mL (≈ 8.01 µM) | 4.70 µg/mL (≈ 8.01 µM) |  |  | COc1nc2ccc(S(C)(=O)=O)cc2cc1C(c1ccc(Cl)cc1)C1(O)CCNC(Cc2ccc(F)cc2F)C1 (centres unmarked) [Compound 306]
24 | >15.12 µg/mL | >15.12 µg/mL |  |  | CS(=O)(=O)c1ccc2[nH]c(=O)c(C(c3cccc(Cl)c3)C3(O)CCNC(Cc4ccc(F)cc4F)C3)cc2c1 (centres unmarked) [Compound 307]
25 | 7.65 µg/mL (≈ 13.3 µM) | 6.08 µg/mL (≈ 10.6 µM) |  |  | CS(=O)(=O)c1ccc2[nH]c(=O)c(C(c3cccc(Cl)c3)C3(O)CCNC(Cc4ccc(F)cc4F)C3)cc2c1 (centres unmarked) [Compound 308]

Row | IC90 STA B29213 [1] | IC90 MSM 607 [2] | IC90 ([2]; Mycolicibacterium smegmatis, ATCC607, 48 h, read-out: IC90 MSM 607) | IC90 [1] | SMILES
26 | 14.50 µg/mL (≈ 26.8 µM) | 11.52 µg/mL (≈ 21.3 µM) |  |  | CSc1ccc2[nH]c(=O)c(C(c3cccc(Cl)c3)C3(O)CCNC(Cc4ccc(F)cc4F)C3)cc2c1 (centres unmarked) [Compound 309]
27 | 3.62 µg/mL (≈ 6.69 µM) | 3.62 µg/mL (≈ 6.69 µM) |  |  | CSc1ccc2[nH]c(=O)c(C(c3cccc(Cl)c3)C3(O)CCNC(Cc4ccc(F)cc4F)C3)cc2c1 (centres unmarked) [Compound 310]
28 | 7.24 µg/mL (≈ 13.4 µM) | 3.63 µg/mL (≈ 6.71 µM) |  |  | CSc1ccc2[nH]c(=O)c(C(c3cccc(Cl)c3)C3(O)CCNC(Cc4ccc(F)cc4F)C3)cc2c1 (centres unmarked) [Compound 311]
29 | 3.62 µg/mL (≈ 6.69 µM) | 3.62 µg/mL (≈ 6.69 µM) |  |  | CSc1ccc2[nH]c(=O)c(C(c3cccc(Cl)c3)C3(O)CCNC(Cc4ccc(F)cc4F)C3)cc2c1 (centres unmarked) [Compound 312]
30 |  | 1.91 µg/mL (≈ 3.25 µM) |  | 2.4 µg/mL (≈ 4.08 µM) | COc1nc2ccc(Br)cc2cc1C(c1ccc(Cl)cc1)C1(O)CCNC(Cc2ccc(F)cc2F)C1 (centres unmarked) [Compound 313]
31 | 3.05 µg/mL (≈ 5.31 µM) | 4.83 µg/mL (≈ 8.42 µM) |  |  | O=c1[nH]c2ccc(Br)cc2cc1C(c1ccc(Cl)cc1)C1(O)CCNC(Cc2ccc(F)cc2F)C1 (centres unmarked) [Compound 314]
32 | 3.84 µg/mL (≈ 6.69 µM) | 3.84 µg/mL (≈ 6.69 µM) |  |  | O=c1[nH]c2ccc(Br)cc2cc1C(c1ccc(Cl)cc1)C1(O)CCNC(Cc2ccc(F)cc2F)C1 (centres unmarked) [Compound 315]
33 | 3.84 µg/mL (≈ 6.69 µM) | 3.05 µg/mL (≈ 5.31 µM) |  |  | O=c1[nH]c2ccc(Br)cc2cc1C(c1ccc(Cl)cc1)C1(O)CCNC(Cc2ccc(F)cc2F)C1 (centres unmarked) [Compound 316]
34 | 1.92 µg/mL (≈ 3.35 µM) | 1.92 µg/mL (≈ 3.35 µM) |  |  | O=c1[nH]c2ccc(Br)cc2cc1C(c1ccc(Cl)cc1)C1(O)CCNC(Cc2ccc(F)cc2F)C1 (centres unmarked) [Compound 317]
35 | 2.40 µg/mL (≈ 4.08 µM) | 2.40 µg/mL (≈ 4.08 µM) |  |  | COc1nc2ccc(Br)cc2cc1C(c1ccc(Cl)cc1)C1(O)CCNC(Cc2ccc(F)cc2F)C1 (centres unmarked) [Compound 319]
36 | 15.33 µg/mL (≈ 26.7 µM) | 12.18 µg/mL (≈ 21.2 µM) |  |  | O=c1[nH]c2ccc(Br)cc2cc1C(c1ccc(Cl)cc1)C1(O)CCNC(Cc2ccc(F)cc2F)C1 (centres unmarked) [Compound 321]
37 | 2.43 µg/mL (≈ 4.23 µM) | 3.85 µg/mL (≈ 6.71 µM) |  |  | O=c1[nH]c2ccc(Br)cc2cc1C(c1ccc(Cl)cc1)C1(O)CCNC(Cc2ccc(F)cc2F)C1 (centres unmarked) [Compound 322]
38 | 7.68 µg/mL (≈ 13.4 µM) | 6.10 µg/mL (≈ 10.6 µM) |  |  | O=c1[nH]c2ccc(Br)cc2cc1C(c1ccc(Cl)cc1)C1(O)CCNC(Cc2ccc(F)cc2F)C1 (centres unmarked) [Compound 323]
39 | 1.93 µg/mL (≈ 3.36 µM) | 3.43 µg/mL (≈ 5.98 µM) |  |  | O=c1[nH]c2ccc(Br)cc2cc1C(c1ccc(Cl)cc1)C1(O)CCNC(Cc2ccc(F)cc2F)C1 (centres unmarked) [Compound 324]
40 | >19.04 µg/mL | 19.04 µg/mL (≈ 32.4 µM) |  |  | COc1nc2ccc(S(C)(=O)=O)cc2cc1C(c1cccc(Cl)c1)C1(O)CCNC(Cc2ccc(F)cc2F)C1 (centres unmarked) [Compound 325]
41 | 5.37 µg/mL (≈ 9.15 µM) | 4.78 µg/mL (≈ 8.14 µM) |  |  | COc1nc2ccc(S(C)(=O)=O)cc2cc1C(c1cccc(Cl)c1)C1(O)CCNC(Cc2ccc(F)cc2F)C1 (centres unmarked) [Compound 326]
42 | >15.31 µg/mL | >15.31 µg/mL |  |  | CS(=O)(=O)c1ccc2[nH]c(=O)c(C(c3cccc(Cl)c3)C3(O)CCNC(Cc4ccc(F)cc4F)C3)cc2c1 (centres unmarked) [Compound 327]
43 | 15.31 µg/mL (≈ 26.7 µM) | 12.16 µg/mL (≈ 21.2 µM) |  |  | CS(=O)(=O)c1ccc2[nH]c(=O)c(C(c3cccc(Cl)c3)C3(O)CCNC(Cc4ccc(F)cc4F)C3)cc2c1 (centres unmarked) [Compound 328]
44 | 7.27 µg/mL (≈ 13.4 µM) | 7.27 µg/mL (≈ 13.4 µM) |  |  | CSc1ccc2[nH]c(=O)c(C(c3cccc(Cl)c3)C3(O)CCNC(Cc4ccc(F)cc4F)C3)cc2c1 (centres unmarked) [Compound 329]
45 | 2.08 µg/mL (≈ 4.09 µM) | 1.04 µg/mL (≈ 2.04 µM) |  |  | COc1nc2ccc(F)cc2cc1C(c1ccc(Cl)cc1)C1(O)CCNC(c2ccc(F)cc2C)C1 (centres unmarked) [Compound 330]
46 | 1.06 µg/mL (≈ 2.08 µM) | 0.94 µg/mL (≈ 1.85 µM) |  |  | COc1nc2ccc(F)cc2cc1C(c1ccc(Cl)cc1)C1(O)CCNC(c2ccc(F)cc2C)C1 (centres unmarked) [Compound 331]
47 | 4.38 µg/mL (≈ 8.61 µM) | 2.20 µg/mL (≈ 4.32 µM) |  |  | COc1nc2ccc(F)cc2cc1C(c1ccc(Cl)cc1)C1(O)CCNC(c2ccc(F)cc2C)C1 (centres unmarked) [Compound 332]
48 | 2.50 µg/mL (≈ 4.78 µM) | 3.53 µg/mL (≈ 6.75 µM) |  |  | CSc1ccc2[nH]c(=O)c(C(c3ccc(Cl)cc3)C3(O)CCNC(Cc4ccc(F)cc4)C3)cc2c1 (centres unmarked) [Compound 333]
49 | 8.87 µg/mL (≈ 17 µM) | 7.04 µg/mL (≈ 13.5 µM) |  |  | CSc1ccc2[nH]c(=O)c(C(c3ccc(Cl)cc3)C3(O)CCNC(Cc4ccc(F)cc4)C3)cc2c1 (centres unmarked) [Compound 334]
